According to patent US8765688B2, “Anti-dandruff compositions containing peptides” (priority 2007, dated 2014):
Ends that are not written are not given here.

Legend:
Assay type in all cases: cell-based
[1] = tested on: Brevibacterium epidermidis; experiment: Growth inhibition of Gram-positive bacteria by P18 (optical density at 620 nm); settings: for optical density at 620 nm: B. epidermidis suspension, 25 μM P18 solution, mean of 8 mixtures
Method: (§1) The growth inhibition by P18 was investigated on Gram-positive and Gram-negative bacteria. Shin et al. 1999 (loc.cit.) had already detected an inhibition on the model organisms Escherichia coli and Bacillus subtilis within a period up to 18 hours.
(§2) The growth medium used for this was LB medium as complex medium for the organisms Escherichia coli, Bacillus subtilis and Brevibacterium epidermidis. The medium comprised 10 g of trypton, 5 g of yeast extract and 10 g of NaCl per liter.
(§3) The growth test was carried out as follows: A shake flask with medium was inoculated with Escherichia coli, Bacillus subtilis or Brevibacterium epidermidis and incubated with shaking overnight at 30° C. and 200 rpm. A 96-well microtiter plate was filled with in each case 100 μl LB medium and inoculated with E.-coli, B.-subtilis or B. epidermidis suspensions of the overnight culture. The bacteria suspension was adjusted at the start of the experiment to an optical density, measured at 620 nm, of about 0.02. The concentrates of the P18 inhibitor solutions were 1 mM in water.
(§4) The growth of the following mixtures was compared by measuring the optical density:
(§5) bacteria suspension without the addition of an inhibitor;
(§6) bacteria suspension and addition of an aqueous P18 solution with a final concentration of 25 μM. The aqueous P18 solution had been freshly prepared.
(§7) The growth was observed over a period of 40 hours by measuring the optical density. […] The growth of Gram-positive bacteria was inhibited initially.

Bacillus subtilis = experiment: as above; settings: for optical density at 620 nm: B. subtilis suspension, 25 μM P18 solution, mean of 8 mixtures
Method: as §1, §2, §3, §4, §5, §6, §7

Escherichia coli = experiment: Growth inhibition of Gram-negative bacteria by P18 (optical density at 620 nm); settings: for optical density at 620 nm: E. coli suspension, 25 μM P18 solution, mean of 8 mixtures
Method: as §1, §2, §3, §4, §5, §6, §7

Malassezia furfur = experiment: Long-term stability of P18 in shampoo basic formulations (40° C.) tested on M. furfur, CFU; settings: stored at 40° C., 0; 12 and 22 days
Method: Long-term stability of the peptide P18 (H-KWKLFKKIPKFLHLAKKF-NH2; carboxy-terminal end amidated) in shampoo basic formulations was tested.
The following shampoo basic formulations were prepared:
The components Texapon NSO and Tego Betain L7 were mixed and dissolved. The pH was adjusted to pH 6-7 with NaOH. In the following, 100 mM of aqueous P18 peptide solution were prepared. A corresponding volume of 100 mM P18 peptide solution was added to each formulation in order to obtain peptide P18 final concentrations as indicated in table 15.
The formulations were stored at 40° C.
After 0; 12 and 22 days, the effect of the formulations against M. furfur was analyzed.
Growth medium: M472-Pityrosporum medium according to DSMZ
The components were sterilized at 121° C., 1 bar superatmospheric pressure for 20 minutes.
2 g/L of olive oil (sterilized by filtration and, after autoclaving, added to the other components) […]
A 96-well microtiter plate was filled with in each case 100 μl of M472-Pityrosporum medium and inoculated with M. furfur suspension of the overnight culture. The M. furfur suspension was adjusted at the start of the experiment to an optical density, measured at 600 nm, of 0.1. […]
After 24 hours, the colony-forming units (CFU) were determined. For this, 1 μl and 10 μl were plated out from each of the suspensions and, after incubation for 6 days, the colonies were counted.

Substance: KWKLFKKIPKFLHLAKKF-NH2 [P18, KWKLFKKIPKFLHLAKKF-NH2]
- growth of B. epidermidis (in words) ([1]; 25 μM, within 40 hours): achieved growth densities comparable with the noninhibited culture
- optical density at 620 nm ([1]; incubation time 16 h): 0.29
- optical density at 620 nm ([1]; incubation time 24 h): 0.56
- optical density at 620 nm ([1]; incubation time 40 h): 1.24
- growth of B. subtilis (in words) (Bacillus subtilis; 25 μM, within 40 hours): achieved growth densities comparable with the noninhibited culture
- optical density at 620 nm (Bacillus subtilis; incubation time 16 h): 0.25
- optical density at 620 nm (Bacillus subtilis; incubation time 24 h): 0.96
- optical density at 620 nm (Bacillus subtilis; incubation time 40 h): 0.67
- growth of E. coli (in words) (Escherichia coli; 25 μM, period of 40 hours): effectively inhibited
- optical density at 620 nm (Escherichia coli; incubation time 16 h): 0.09
- optical density at 620 nm (Escherichia coli; incubation time 24 h): 0.06
- optical density at 620 nm (Escherichia coli; incubation time 40 h): 0.07
- long-term stability in shampoo basic formulations (in words) (Malassezia furfur): stable characteristics
